Test results taken from patent EP0252380B1, “Antibiotic LL-E19020 alpha and beta” (AMERICAN CYANAMID COMPANY, priority 1986, dated 1988).
Converted amounts (≈) assume the structure as drawn. Marks after values point to notes of the source that are not given here.

Assays:
[1] = Growth of chickens and efficiency of feed utilization (Example 5, Table VIII); format: in vivo, Peterson X Arbor Acres chicks; conditions: for Feed/Gain 0-1 Wk: control 1.21; for Feed/Gain 0-2 Wk: control 1.33; for Feed/Gain 0-3 Wk: control 1.43; for efficiency of feed utilization (statement in words) / weight gains of chicks (statement in words): over unmedicated controls
Method: In this test one day old Peterson X Arbor Acres chicks are sorted into equal weight groups of 5 males and 5 females per cage. Cages are randomized to treatment groups with six replicates per treatment. Each compound is tested at 50 and 100 ppm in the diet and evaluated against chicks receiving a non-medicated diet.
The chicks are weighed at the start of the test and at 1 week intervals thereafter to the conclusion of said test. The chicks are given free access to feed and water during the entire test period. The feed is weighed when provided to the chicks and excess feed collected and weighed when the cages are cleaned.
The poultry diet employed in the test is as follows: Vitamin-amino acid premix 0.5% Trace minerals 0.1% Sodium chloride 0.3% Dicalcium phosphate 1.2% Ground limestone 0.5% Stabilized fat 4.0% Dehydrated alfalfa, 17% protein 2.0% Corn gluten meal, 41% protein 5.0% Menhaden fish meal, 60% protein 5.0% Soybean oil meal, 44% protein 30.0% Ground yellow corn, fine to 100.0%
The vitamin-amino acid premix in the above feed composition is prepared from the following formulation. The expressions of quantity relate to units per kilogram of the finished feed compositions. Butylated hydroxy toluene 125.0 mg d1-Methionine 500.0 mg Vitamin A 3300.0 I.U. Vitamin D₃ 1100.0 I.C.U. Riboflavin 4.4 mg Vitamin E 2.2 I.U. Niacin 27.5 mg Panthothenic acid 8.8 mg Choline chloride 500.0 mg Folic acid 1.43 mg Menadione sodium bisulfate 1.1 mg Vitamin B₁₂ 11.0 mcg Ground yellow corn, fine to […]

[2] = tested on: Staphylococcus epidermidis; assay: In vitro antibacterial activity, standard agar dilution method (Table II); format: cell-based; conditions: strain IO-83-58
[3] = tested on: In Vitro Rumen Fermentation; assay: Propionate enhancement activity during in vitro rumen fermentation; format: cell-based, steer; conditions: for A:P: acetate/propionate ratio
Method: The drugs are dissolved or suspended (sonified if necessary) in a 0.1% Tween 20-ethanol-water vehicle and 25-50 ul is added to the incubation. The reaction is terminated with 6N HCl and centrifuged at 20,000 x g. Alliquots of the superinatant are analyzed for volatile fatty acid (VFA) content by gas-liquid chromatography.

Enterococcus = assay: In vitro antibacterial activity, standard agar dilution method (Table II); format: cell-based
Treponema hyodysenteriae = assay: T. hyodysenteriae disk test (primary in vitro disk diffusion test); conditions: disks soaked in 2.5 mg/ml solution, zones of inhibited hemolysis
Streptococcus faecalis = assay: Minimum inhibitory concentration by agar dilution (Table VI); format: cell-based; conditions: 1 strain tested
[4] = tested on: Pasteurella multocida 31081B; assay: Pasteurella disk test (primary in vitro disk diffusion test); conditions: disks soaked in 2.5 mg/ml solution; strain 31081B
Caenorhabditis elegans = assay: Control of the free living nematode Caenorhabditis elegans (motility rating); format: cell-based; set-up: key: 9 = worms immobile or dead within 4 hours post immersion in microfilter test solution; 8 = no motility; 7 = markedly reduced motility in approximately 95% of worms; 6 = reduced motility; 5 = slightly reduced motility; 0 = normal motility, same as controls; conditions: 150 ppm; motility of adults and larvae
Description: Culture Maintenance: Cultures of C. elegans (Bristol strain from J. Lewis) are maintained on E. coli lawns on NG Agar Plates at 20 C. New cultures are established weekly. Nematodes for testing are washed from 4-5 day old cultures using Fresh Ascaris ringers Solution (FARS). The worms are further washed with FARS, containing gentamycin, to reduce bacterial contamination and centrifuged to separate worms from wash solution. This procedure is repeated three times. The washed worms are than added to C. briggsae Maintenance Medium (CbMM), from GIBCO^a to which is added gentamycin (600 units/ml) and mycostatin (0.5 mg.ml). ^aGIBCO Laboratories, 3175 Staley Road, Grand Island, N.Y. 14027, USA Compounds are dissolved in acetone and made up to volume with equal parts of water. The final test concentration of each compound in the mixture is 150 ppm. The test material is micropipetted (25 ul) into a single well of a 96-well sterile tissue culture plate (COSTAR)^b and the solvent allowed to evaporate. These "treated" plates are used immediately or stored in a freezer without apparent adverse effects on the compounds. ^b205 Broadway, Cambridge, MA 02139, USA […] […] Immediately prior to reading the plate, it is gently tapped to stimulate the movement of the worms. Activity is judged subjectively, but semi-quantitatively, based on the drug effects on motility of the adults and larvae. […]

[5] = tested on: Trichostrongylus colubriformis; assay: Trichostrongylus colubriformis/gerbil anthelmintic evaluation; format: in vivo, Gerbils
Method: Gerbils are infected with 400 infective larvae of the sheep parasite, T. colubriformis on a day 0. On day 7 gerbils are divided into test and untreated control groups of 2-3 animals. Drug is administered in the feed and are fed from day 7-11. Drugs may also be given by gavage (single oral dose) or injected subcutaneously. Single doses are usually administered on day 7. Gerbils are killed on day 11 and small intestines removed. The number of T. colubriformis remaining in the intestines of treated animals are counted and compared to the number remaining in the untreated controls.

Klebsiella pneumoniae = assay: In vitro antibacterial activity, standard agar dilution method (Table II); format: cell-based; conditions: strain AD
[6] = Table X, 0.008 PPM, control 2.65
[7] = Table X, 0.008 PPM, control 159.4
[8] = Table X, 0.031 PPM, control 2.65
[9] = Table X, 0.031 PPM, control 159.4
[10] = Table X, 0.125 PPM, control 2.65
[11] = Table X, 0.125 PPM, control 159.4
[12] = Table X, 0.500 PPM, control 2.65
[13] = Table X, 0.500 PPM, control 159.4
[14] = Table X, 2.000 PPM, control 2.65
[15] = Table X, 2.000 PPM, control 159.4
[16] = Table XI, 0.015 PPM, control 2.19
[17] = Table XI, 0.015 PPM, control 125.3
[18] = Table XI, 0.031 PPM, control 2.19
[19] = Table XI, 0.031 PPM, control 125.3
[20] = Table XI, 0.062 PPM, control 2.19
[21] = Table XI, 0.062 PPM, control 125.3
[22] = Table XI, 0.125 PPM, control 2.19
[23] = Table XI, 0.125 PPM, control 125.3
[24] = Table XI, 0.250 PPM, control 2.19
[25] = Table XI, 0.250 PPM, control 125.3

## C/C=C\C=C\[C@@H]1O[C@](O)([C@H](CO[C@H]2C[C@@H](OC)[C@@H](O[C@@H]3C[C@@H](OC)[C@@H](O[C@H]4C[C@H](OC)[C@H](O)[C@H](C)O4)[C@H](C)O3)[C@@H](C)O2)C(=O)NC/C=C/C=C(\C)[C@@H](OC)[C@H](C)[C@H]2C[C@H](O)[C@H](/C=C/C=C/C=C/C(=O)O)O2)[C@H](OC(=O)Cc2ccccc2)[C@H](O)C1(C)C [LL-E19020 alpha]
[1]; 50 ppm in the diet
  Weight Gains % Improvement over Controls 0-1 Wk: 12.5** %
  Weight Gains % Improvement over Controls 0-2 Wk: 4.1* %
  Weight Gains % Improvement over Controls 0-3 Wk: 4.2* %
  Feed/Gain 0-1 Wk: 1.11*
  Feed/Gain 0-2 Wk: 1.30
  Feed/Gain 0-3 Wk: 1.38
[1]; 100 ppm in the diet
  Weight Gains % Improvement over Controls 0-1 Wk: 8.9* %
  Weight Gains % Improvement over Controls 0-2 Wk: 6.3** %
  Weight Gains % Improvement over Controls 0-3 Wk: 6.1** %
  Feed/Gain 0-1 Wk: 1.12*
  Feed/Gain 0-2 Wk: 1.27
  Feed/Gain 0-3 Wk: 1.39
[1]
  efficiency of feed utilization (statement in words): increased the efficiency of feed utilization
  weight gains of chicks (statement in words): improved the weight gains of chicks
[2]
  Minimal Inhibitory Concentration: > 256 µg/mL
[3]; [6]
  A:P: 2.66
[3]; [7]
  TOTAL VFA: 161.2 mM
[3]; [8]
  A:P: 2.43
[3]; [9]
  TOTAL VFA: 158.4 mM
[3]; [10]
  A:P: 2.14
[3]; [11]
  TOTAL VFA: 159.2 mM
[3]; [12]
  A:P: 2.27
[3]; [13]
  TOTAL VFA: 146.9 mM
[3]; [14]
  A:P: 2.21
[3]; [15]
  TOTAL VFA: 150.5 mM
[3]; [16]
  A:P: 2.05
[3]; [17]
  TOTAL VFA: 125.1 mM
[3]; [18]
  A:P: 1.96
[3]; [19]
  TOTAL VFA: 126.5 mM
[3]; [20]
  A:P: 1.90
[3]; [21]
  TOTAL VFA: 126.3 mM
[3]; [22]
  A:P: 1.92
[3]; [23]
  TOTAL VFA: 121.9 mM
[3]; [24]
  A:P: 1.85
[3]; [25]
  TOTAL VFA: 121.1 mM
Enterococcus; strain CMC-83-72
  Minimal Inhibitory Concentration: >256 µg/mL
Enterococcus; strain IO-83-28
  Minimal Inhibitory Concentration: >256 µg/mL
Enterococcus; strain IO-83-40
  Minimal Inhibitory Concentration: >256 µg/mL
Enterococcus; strain VGH-84-65
  Minimal Inhibitory Concentration: 256 µg/mL
Enterococcus; strain VGH-84-68
  Minimal Inhibitory Concentration: >256 µg/mL
Treponema hyodysenteriae; strain B78 (ATCC 27164)
  ZONE SIZE: 0 mm
Treponema hyodysenteriae; strain B204 (ATCC 31212)
  ZONE SIZE: 15 mm
Streptococcus faecalis
  MIC: 8 µg/mL (≈ 6.52 µM)
[4]
  ZONE SIZE: 15 mm
Caenorhabditis elegans
  Rating: 9 (immobile or dead)
[5]; 10 m/kg single oral dose
  % Worms Removed: 23%
[5]; 250 ppm diet, fed day 7-11
  % Worms Removed: 56%
Klebsiella pneumoniae
  Minimal Inhibitory Concentration: >256 µg/mL

## C/C=C/C=C/[C@@H]1O[C@](O)([C@H](CO[C@H]2C[C@H](OC)[C@H](O[C@@H]3C[C@H](OC)[C@@H](O[C@H]4C[C@H](OC)[C@H](O)[C@H](C)O4)[C@H](C)O3)[C@H](C)O2)C(=O)NC/C=C/C=C(\C)[C@H](OC)[C@@H](C)[C@@H]2C[C@H](O)[C@@H](/C=C/C=C/C=C\C(=O)O)O2)[C@@H](O)[C@H](OC(=O)Cc2ccccc2)C1(C)C [LL-E19020 beta]
[1]; 50 ppm in the diet
  Weight Gains % Improvement over Controls 0-1 Wk: 12.7** %
  Weight Gains % Improvement over Controls 0-2 Wk: 4.5* %
  Weight Gains % Improvement over Controls 0-3 Wk: 5.3* %
  Feed/Gain 0-1 Wk: 1.11*
  Feed/Gain 0-2 Wk: 1.31
  Feed/Gain 0-3 Wk: 1.40
[1]; 100 ppm in the diet
  Weight Gains % Improvement over Controls 0-1 Wk: 10.7* %
  Weight Gains % Improvement over Controls 0-2 Wk: 5.1* %
  Weight Gains % Improvement over Controls 0-3 Wk: 5.9** %
  Feed/Gain 0-1 Wk: 1.13*
  Feed/Gain 0-2 Wk: 1.29
  Feed/Gain 0-3 Wk: 1.38
[1]
  efficiency of feed utilization (statement in words): increased the efficiency of feed utilization
  weight gains of chicks (statement in words): improved the weight gains of chicks
[2]
  Minimal Inhibitory Concentration: > 128 µg/mL
[3]; [6]
  A:P: 2.63
[3]; [7]
  TOTAL VFA: 161.2 mM
[3]; [8]
  A:P: 2.44
[3]; [9]
  TOTAL VFA: 161.1 mM
[3]; [10]
  A:P: 2.19
[3]; [11]
  TOTAL VFA: 161.6 mM
[3]; [12]
  A:P: 2.15
[3]; [13]
  TOTAL VFA: 156.7 mM
[3]; [14]
  A:P: 2.18
[3]; [15]
  TOTAL VFA: 153.8 mM
[3]; [16]
  A:P: 2.03
[3]; [17]
  TOTAL VFA: 127.2 mM
[3]; [18]
  A:P: 1.98
[3]; [19]
  TOTAL VFA: 125.7 mM
[3]; [20]
  A:P: 1.96
[3]; [21]
  TOTAL VFA: 123.7 mM
[3]; [22]
  A:P: 1.92
[3]; [23]
  TOTAL VFA: 124.3 mM
[3]; [24]
  A:P: 1.93
[3]; [25]
  TOTAL VFA: 122.6 mM
Enterococcus; strain CMC-83-72
  Minimal Inhibitory Concentration: >128 µg/mL
Enterococcus; strain IO-83-28
  Minimal Inhibitory Concentration: >128 µg/mL
Enterococcus; strain IO-83-40
  Minimal Inhibitory Concentration: >128 µg/mL
Enterococcus; strain VGH-84-65
  Minimal Inhibitory Concentration: >128 µg/mL
Enterococcus; strain VGH-84-68
  Minimal Inhibitory Concentration: >128 µg/mL
Treponema hyodysenteriae; strain B204 (ATCC 31212)
  ZONE SIZE: 11 mm
Streptococcus faecalis
  MIC: 8 µg/mL (≈ 6.52 µM)
[4]
  ZONE SIZE: 13 mm
Caenorhabditis elegans
  Rating: 9 (immobile or dead)
[5]; 5 m/kg single oral dose
  % Worms Removed: 19%
[5]; 62.5 ppm diet, fed day 7-11
  % Worms Removed: 32%
[5]; 150 ppm diet, fed day 7-11
  % Worms Removed: 86%
[5]; 250 ppm diet, fed day 7-11
  % Worms Removed: 100%
Klebsiella pneumoniae
  Minimal Inhibitory Concentration: >128 µg/mL
